In the supplement of paper PMC10307832:

Columns and labels:
Test in all cases: relative viability (nuclei count vs DMSO), 5 days (fraction); higher = more cells survive
[1] = compound: O=C(CCCCCCNC(=O)c1cnc(N(c2ccccc2)c2ccccc2)nc1)NO [Ricolinostat] + CS(=O)(=O)N1CCN(Cc2cc3nc(-c4cccc5[nH]ncc45)nc(N4CCOCC4)c3s2)CC1 [Pictilisib] (partner 1 µM)
Summary of the method: (§1)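 Lung cancer cell lines, seeded in 1536-well plates, were treated the following day by pin tool with a single drug or with five library-drug doses (not always all listed) in √10 steps on top of a fixed anchor-drug dose. Cells were fixed and nuclei stained in one step after 5 days, and nuclei were counted. Relative viability is the nuclei count for treated wells divided by that for vehicle wells, reported as medians of duplicate plates.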

TGX 221 + Olaparib = compound: CC1=CN2C(=O)C=C(N=C2C(=C1)C(C)NC3=CC=CC=C3)N4CCOCC4 [TGX 221] + O=C(c1cc(Cc2n[nH]c(=O)c3ccccc23)ccc1F)N1CCN(C(=O)C2CC2)CC1 [Olaparib] (partner 8 µM)
Summary of the method: as §1

TGX 221 + OSI-027 = compound: CC1=CN2C(=O)C=C(N=C2C(=C1)C(C)NC3=CC=CC=C3)N4CCOCC4 [TGX 221] + COc1cccc2cc(-c3nc([C@H]4CC[C@H](C(=O)O)CC4)n4ncnc(N)c34)[nH]c12 [OSI-027] (partner 0.5 µM)
Summary of the method: as §1

Ricolinostat + Olaparib = compound: O=C(CCCCCCNC(=O)c1cnc(N(c2ccccc2)c2ccccc2)nc1)NO [Ricolinostat] + O=C(c1cc(Cc2n[nH]c(=O)c3ccccc23)ccc1F)N1CCN(C(=O)C2CC2)CC1 [Olaparib] (partner 8 µM)
Summary of the method: as §1

Cell Line	relative viability ([1]; first compound 0.08 µM)	relative viability ([1]; first compound 0.253 µM)	relative viability ([1]; first compound 0.8 µM)	relative viability ([1]; first compound 2.53 µM)	relative viability (TGX 221 + Olaparib; first compound 0.08 µM)	relative viability (TGX 221 + Olaparib; first compound 0.253 µM)	relative viability (TGX 221 + Olaparib; first compound 0.8 µM)	relative viability (TGX 221 + Olaparib; first compound 2.53 µM)	relative viability (TGX 221 + Olaparib; first compound 8 µM)	relative viability (TGX 221 + OSI-027; first compound 0.08 µM)	relative viability (TGX 221 + OSI-027; first compound 0.253 µM)	relative viability (TGX 221 + OSI-027; first compound 0.8 µM)	relative viability (TGX 221 + OSI-027; first compound 2.53 µM)	relative viability (TGX 221 + OSI-027; first compound 8 µM)	relative viability (Ricolinostat + Olaparib; first compound 0.08 µM)	relative viability (Ricolinostat + Olaparib; first compound 0.253 µM)	relative viability (Ricolinostat + Olaparib; first compound 0.8 µM)	relative viability (Ricolinostat + Olaparib; first compound 2.53 µM)
RERF-LC-KJ	0.755	0.637	0.422	0.467	0.834	0.756	0.996	0.844	0.874	0.567	0.598	0.593	0.574	0.534	0.897	0.894	0.773	0.582
NCI-H1623	–	–	–	–	–	–	–	–	–	0.44	0.402	0.423	0.389	0.477	–	–	–	–
NCI-H2342	–	–	–	–	0.424	0.417	0.404	0.466	0.463	0.544	0.655	0.613	0.631	0.602	0.444	0.535	0.421	0.46
Calu-6	0.898	0.91	0.795	0.648	0.55	0.513	0.549	0.536	0.512	–	–	–	–	–	0.548	0.526	0.562	0.419
A549	0.405	0.517	0.471	0.312	0.375	0.318	0.0939	0.301	0.422	–	–	–	–	–	–	0.252	0.286	0.139
NCI-H1703	–	0.253	0.247	0.275	0.449	0.462	0.389	0.396	0.255	–	–	–	–	–	–	0.426	0.332	0.458
NCI-H1299	0.77	0.796	0.784	0.603	0.971	0.952	1.02	1.03	0.943	–	–	–	–	–	0.95	0.914	0.942	0.91
EBC-1	0.372	0.403	0.26	0.165	0.664	0.697	0.616	0.676	0.55	–	–	–	–	–	0.638	0.618	0.571	0.352
NCI-H1648	–	–	–	–	–	0.452	0.802	0.764	0.842	0.268	–	0.256	0.237	0.254	–	0.817	0.407	0.4
SW 900	–	–	–	–	–	0.787	0.701	0.578	0.562	0.609	0.482	0.449	0.429	0.713	0.845	0.836	0.853	0.621
IA-LM	0.234	0.35	0.308	0.316	0.866	0.857	0.846	0.858	0.799	–	–	–	–	–	0.728	0.92	0.737	0.586
